These results are taken from US10098899B2, “Drug with activity against the herpes virus family” (priority 2010, dated 2018).

One assay has as its system Herpes virus of type II. Description: Antiviral activity in Vero cells, unaltered cells, herpes virus of type II. It is filed as cell-based. The following applies: for Number (%) of unaltered cells, percent / Number of unaltered cells: Herpes virus of type II, Vero cells, 50 mg/1 of preparation; for Number of unaltered cells: non-infected reference 10000. As to the method: (§1) Determining Activity Against Herpes Viruses of Type 1 and 11.
(§2) Herpes simplex virus (strain EC) was grown in Vero cells cultured in MEM medium with the addition of 0.2% bovine serum and 50 mg/1 of the preparations under study.

In assay [1] the test system is type I herpes simplex virus (strain EC). The assay is described as follows: Herpetic pneumonia in white mice: histologic (morphometric) examination of lungs. It is filed as in vivo, white non-pedigree mice.
For another assay, the system named is Herpes virus of type I. The assay is described as follows: Antiviral activity in Vero cells, unaltered cells, herpes virus of type I. Type of assay: cell-based. The following applies: 50 mg/1 of preparation; for Number of unaltered cells: non-infected reference 10000. The procedure: as §1, §2
For assay [2], the system named is type I herpes simplex virus (strain EC). The assay is described as follows: Herpetic pneumonia in white mice: virus titer in lungs (titration on Vero cells). It is filed as in vivo, white non-pedigree mice. Conditions: for Virus titer in lungs of mice on day 3 after the infection: day 3 after infection, 50 mg/kg intragastrically, 24 h and 1 h prior to and 24 h and 48 h after infection. The procedure: Antiviral activity of the inventive substance was determined using the model of pneumonia in white mice caused by type I herpes simplex virus.
Herpes simplex virus of type I (strain EC) was accumulated in Vero cells cultured in MEM medium with the addition of 0.2% bovine serum, 50 μg/ml of gentamicin. Virus titration was performed on Vero cells cultured in 96-well plates. Results were recorded after a pronounced cytopathic effect (CPE) appeared in virus control. The degree of intactness of the cellular monolayer was assessed visually, virus titer was calculated as the reciprocal value of Briggs logarithm of the largest dilution of the source material that is still able to produce visually notable manifestations of CPE in the cell culture (CTD50).
For assessing the virus inhibiting action of the preparations, white non-pedigree mice weighing 12-15 g (“Rappolovo” farm, Leningrad Region) were infected intranasally under a light ether anaesthesia with the herpes simplex virus in the dosage of 106 (CTD50)/0.05 ml. The preparation under study was administered intragastrically in the dosage of 50 mg/kg of weight according to a medical-preventive scheme (24 h and 1 h prior to infection, and 24 h and 48 h after the animals were infected). On day 3 the lungs of the infected animals were removed, homogenized in the presence of 10-fold volume of phosphate buffer and then 10-fold dilutions from 10-1 to 10-6 were prepared thereof. Dilutions of the lungs homogenate were used for infecting the intact culture of Vero cells and for titration of virus progeny. Positive reference was represented by lungs of mice that instead of the studied preparation received physiological solution by intragastric administration, whereas negative reference was represented by lungs of mice that received aciclovir in the dosage of 50 mg/kg of weight according to the same scheme. Each experimental group consisted of 10 animals.

As to “(2,6-dichlorophenyl)amide salt of carbopentoxysulfanilic acid [The inventive substance]”, the figures for the “Number (%) of unaltered cells, percent” value with Herpes virus of type II and in the assay with Herpes virus of type I were “(90%)” and “(80%)”, respectively. In addition, the entries for the “Number of unaltered cells” value in the assay with Herpes virus of type II and in the assay with Herpes virus of type I were 9000 and 8000, respectively. Also, the “antiviral activity compared with aciclovir (in words)” value with Herpes virus of type II (in particular against the herpes virus of type II) is “significantly exceeds that of the aciclovir”. Also, the “Area of an inflammation focus in section” value in assay [1] (term 2 days) came out at 47 ± 7.3; in assay [1] (term 4 days), 49 ± 12.1; in assay [1] (term 6 days) it was 14 ± 5.5. Moreover, the “Number of inflammation foci in one animal” value is on record as 3 in assay [1] (term 2 days), 2 in assay [1] (term 4 days) and 1 in assay [1] (term 6 days). The “virus-inhibitory activity at the model of herpetic pneumonia in vivo (in words)” value in assay [2] (compared with aciclovir at the same dosage) is recorded as “statistically significant virus-inhibitory activity”. The “Virus titer in lungs of mice on day 3 after the infection” value in assay [2] was 1.0 ± 0.11 Lg CTD50.
For the compound `Nc1nc2c(ncn2COCCO)c(=O)[nH]1` [Aciclovir, 2-amino-1,9-dihydro-9-[(2-hydroxyethoxy)methyl]-6H-purine-6-on, reference compound], the “Number (%) of unaltered cells, percent” value with Herpes virus of type II is listed as “(70%)”; in the assay on Herpes virus of type I, “(65%)”. In addition, the “Number of unaltered cells” value in the assay on Herpes virus of type II and with Herpes virus of type I was 7000 throughout. The “Area of an inflammation focus in section” value in assay [1] (term 2 days) was found to be 55 ± 9.4; in assay [1] (term 4 days), 58 ± 14.7; in assay [1] (term 6 days), 24 ± 6.4. The “Number of inflammation foci in one animal” value in assay [1] (term 2 days) came out at 8; in assay [1] (term 4 days) it was 3; in assay [1] (term 6 days) it was 3. Moreover, the “Virus titer in lungs of mice on day 3 after the infection” value in assay [2] is on record as 1.4 ± 0.34 Lg CTD50.
